Laboratory results as given in US20150044305A1, “[…] NITRIC OXIDE FOR TREATING RESPIRATORY DISEASES” (Advanced Inhalation Therapies (AIT) Ltd., priority 2012, published 2015).

Assay: Phase I safety study: pulmonary function tests
Type: in vivo, human
Experimental: After obtaining informed consent, treatment was initiated within 5 days of enrollment. Subjects were housed in a hospital ward and received 160 ppm gNO for 30 minutes every four hours (Q4 h), five times a day, for five consecutive days by inhalation. Subjects returned for follow-up evaluations 3, 7 and 21 days after the final gNO administration. Subject safety was determined by monitoring vital signs, methemoglobin levels, lung function, blood chemistry, hematology, prothrombin time, inflammatory cytokine/chemokines levels and endothelial activation.
Subjects underwent full pulmonary function tests (PFT), including lung diffusing capacity (DLCO) by a trained technician utilizing a calibrated pulmonary function system (Jaeger MasterScreen, VIASYS Healthcare, USA) on screening and days 2, 8, 12 and 26. Spirometry test (Microloop by Micro Medical, England) was performed on days 1, 3 and 4. Effect of gNO on lung function and DLCO was determined by changes from baseline, treatment days and follow up days.

[1] = vs baseline during the course of the study

With `[N]=O` [gNO, nitric oxide] the pulmonary function tests (during and after gNO administration) was “did not reveal any abnormalities”, the DLCO (vs baseline) was “did not change from baseline” and the “forced vital capacity (FVC)” value (vs baseline) was “did not change from baseline”. For the same compound, the “residual volume (RV)” value (vs baseline) was “did not change from baseline”, the “total lung capacity (TLC)” value (vs baseline) was “did not change from baseline” and the FEV1 [1] was “did not differ from baseline”. The “maximum mid-expiratory flow (MMEF)” value [1] was “did not differ from baseline”.
